The record followed here is patent US20110312961A1, “2,5-Disubstituted Morpholine Orexin REceptor Antagonists” (priority 2008, published 2011).

The subject of one experiment is CD-1 mice. Kind of experiment: Formalin test. The note with it: 5 mg/kg s.c., positive control. In kind it is in vivo, mouse. The protocol: One of the most clinically predictive screening models of acute pain is the formalin test in mice (LeBars et al., 2001). In this paradigm, originally described by Dubuisson and Dennis (1977), a diluted solution of formalin is injected into the plantar surface of a subject's (rat or mouse) rear paw and nociceptive behavior is measured; for instance, licking and biting of the injected paw. Two phases of the response are observed. First an early phase, starting immediately after injection and lasting 5-10 minutes, followed by a late phase that can last from 15-60 minutes after injection. Nociceptive response is attributed to direct chemical stimulation in the early phase and inflammation/persistent pain in the later phase (Dubuisson and Dennis, 1977). The response in the late phase also depends on changes in processing of information in the spinal cord due to the afferent barrage during the early phase (Coderre et al., 1990). An advantage of the test is that two different types of stimuli are employed in the same assay to study the possibility of varying analgesic effects of a drug in the two phases of the test (Tjølsen and Hole, 1997).
Subjects (adult male CD-1 mice (Charles River, Raleigh, N.C.) weighing approximately 20-25 grams) were removed from their home cage and weighed, then placed in a clear Plexiglas™ observation box for an acclimation period of 20-30 minutes. Mice were then removed from the observation chambers and (2S,3R)—N-2-((3-pyridinyl)methyl)-1-azabicyclo[2.2.2]oct-3-yl)-3,5-difluorobenzamide (as the hydrochloride salt in 0.9% saline) (1, 3 or 10 mg/kg s.c. (calculated with respect to the free base)), morphine (5 mg/kg; s.c.) or 0.9% saline vehicle was administered subcutaneously in a volume of 1 mL/kg. Mice were then returned to the chamber for the predetermined pretreatment time of 30 minutes for (2S,3R)—N-2-((3-pyridinyl)methyl)-1-azabicyclo[2.2.2]oct-3-yl)-3,5-difluorobenzamide and morphine.
After the test compound pretreatment time, the animals were injected with formalin solution (2.5% derived as a 1:4 dilution of 10% phosphate buffered formalin solution (Sigma):distilled water). The subject's assigned paw was gasped gently and formalin solution was injected into the paw intra-dermally in the middle on the dorsal side. Once injected, the subject was immediately returned to its observation chamber and a timer was started to mark the beginning of Phase I. Each subject was videotaped for the entire 40-minute session. […] The time spent licking during that 1 min interval was recorded, and the presence or absence of paw favoring was noted.
For data analyses, phase I of the test was defined as 0 to 5 minutes after formalin injection, and phase II was defined as 20 to 40 minutes after formalin injection. The time spent licking during the 1 minute intervals during those time frames was recorded and graphed as mean±S.E.M. For comparisons across treatment groups, 1-way analyses of variance (ANOVAs) were performed for each phase of the session with treatment as the […] variable. Post-hoc analyses were performed when appropriate to determine specific group differences.

Another experiment deals with Sprague-Dawley rats. Kind of experiment: Complete Freund's adjuvant (CFA)-induced thermal hyperalgesia. It is filed as in vivo, rat. The note with it: 3 mg/kg s.c., 1 hour after dosing, reference standard. The protocol: Injection of complete Freund's adjuvant (CFA) in rats is commonly used to evaluate compounds with potential for use as drugs in treatment of mono-arthritis (osteo-arthritis) and other inflammatory conditions. Signs of hyperalgesia develop within 24 h (Schaible and Grubb, 1993).
(2S,3R)—N-2-((3-pyridinyl)methyl)-1-azabicyclo[2.2.2]oct-3-yl)-3,5-difluorobenzamide was evaluated for possible analgesia effect in the CFA-induced thermal hyperalgesia test in rats using methods similar to those described by Walker and colleagues (2003). Briefly, adult male Sprague-Dawley rats (BioLasco, Taiwan) weighing 180±20 g on receipt were randomly assigned to treatment groups of n=8 per group. Animals each received a sub plantar injection (0.1 mL) of CFA (DIFCO, 264010; 0.1% solution) to the right hind paw at 24 h prior to experimental testing. Thermal hyperalgesia was tested using a Paw/Tail stimulator analgesia meter (IITC Model-336G, IITC, USA) with a thermally regulated glass floor set at 30° C. […] The time required for the animal to withdraw the paw from the thermal stimulus was automatically recorded. […]
Twenty-four hours after CFA injection, subjects were pre-selected (for clear presence of thermal hyperalgesia) for experimentation only if the latency to withdrawal was less than 75% of the baseline. […] The post-treatment level of thermal hyperalgesia was then measured at 60 minutes post-treatment. […]

As for `CN1CC[C@]23c4c5ccc(O)c4O[C@H]2[C@@H](O)C=C[C@H]3[C@H]1C5` [morphine, reference compound], in the experiment with CD-1 mice, the “efficacy, phase I” value is “efficacious” and the “efficacy, phase II” value is “efficacious”. Besides, in the experiment with Sprague-Dawley rats, the “analgesic effect on CFA-induced thermal hyperalgesia” value is “significant analgesic activity”.
